Results taken from patent US20250134889A1, “TARGETING IRE1 KINASE AND FMRP FOR PROPHYLAXIS, MANAGEMENT AND TREATMENT OF ATHEROSCLEROSIS” (CEDARS-SINAI MEDICAL CENTER, priority 2022, published 2025).

Test system: BMDM
Assay: In vitro efferocytosis
Assay type: cell-based, mouse
Description: FIGS. 3A-3G depict that FMRP-deficiency increases efferocytosis in vivo. (For all images scale bar=50 μm; Red: Macrophages, Green: AC/AC-1, Violet: AC-2. Data are mean±SEM. Unpaired t-test with Welch's correction. * P≤0.05, ** P≤0.01, *** P≤0.001.) • 3A-3E. In vitro and in vivo efferocytosis experiments, where percentage of macrophages F4/80^+ (red) that ingested apoptotic cells (AC) labeled with carboxyfluorescein succinimidyl ester (CFSE)^+ (green) were reported as % efferocytosis. • 3A. BMDMs were transfected with Fmr1- or control-siRNA and incubated CFSE-labeled AC for the indicated hours (n=4). • 3B. Fmr1^+/+ and Fmr1^−/− BMDMs were treated with PA (500 μM) for 6 hours and then incubated with CFSE-labeled ACs for 4 hours (n=4). • 3C. Fmr1^+/+ and Fmr1^−/− mice were fed WD (16 weeks) and injected intraperitoneally with CFSE-labeled AC (1.5 hours), followed by PM elicitation (n=4-5). • 3D. BMDM were pre-treated either with vehicle (DMSO) or AMG-18 (5 μM) for 1 hour then incubated with CFSE-labeled ACs for 4 hours (n=4). • 3E. […] In vitro continuous efferocytosis experiments, where macrophages were stained for F4/80^+ (red), AC were labeled with CFSE (AC-1; green) or Violet (AC2; violet). % continuous efferocytosis was determined by the ratio of F4/80^+, CFSE^+ and Violet^+ (triple positive) cells to total F4/80^+/+ and CFSE^+ (double positive) cells. • 3F. […]

With Cc1ccc2c(NS(=O)(=O)c3ccccc3Cl)cccc2c1Oc1ncccc1-c1ccnc(N[C@H]2CCCNC2)n1 [AMG-18] the “continued efferocytosis of ACs” value (AMG-18 5 μM 1 hour, AC-1 2 hours then AC-2 2 hours) was “enhanced” and the “efferocytosis of ACs” value (CFSE-labeled ACs, AMG-18 5 μM 1 hour then ACs 4 hours, siRNA transfected BMDM) was “increased”.
